The results in this text go back to publication PMC12155096 (International Journal of Molecular Sciences, 2025).

Counter-ions that a name gives are not always drawn. Like-named read-outs stand apart in the source and are kept apart here.

Data set [1] concerns the target Photinus pyralis (firefly) luciferase (Photinus pyralis, UniProt P08659). Nature of the data set: biochemical. Format: biochemical.
The target in data set [2] is T1, human CYP2D6 (Homo sapiens, UniProt P10635). Briefly: biochemical.
T1 sequence (P10635 whole entry): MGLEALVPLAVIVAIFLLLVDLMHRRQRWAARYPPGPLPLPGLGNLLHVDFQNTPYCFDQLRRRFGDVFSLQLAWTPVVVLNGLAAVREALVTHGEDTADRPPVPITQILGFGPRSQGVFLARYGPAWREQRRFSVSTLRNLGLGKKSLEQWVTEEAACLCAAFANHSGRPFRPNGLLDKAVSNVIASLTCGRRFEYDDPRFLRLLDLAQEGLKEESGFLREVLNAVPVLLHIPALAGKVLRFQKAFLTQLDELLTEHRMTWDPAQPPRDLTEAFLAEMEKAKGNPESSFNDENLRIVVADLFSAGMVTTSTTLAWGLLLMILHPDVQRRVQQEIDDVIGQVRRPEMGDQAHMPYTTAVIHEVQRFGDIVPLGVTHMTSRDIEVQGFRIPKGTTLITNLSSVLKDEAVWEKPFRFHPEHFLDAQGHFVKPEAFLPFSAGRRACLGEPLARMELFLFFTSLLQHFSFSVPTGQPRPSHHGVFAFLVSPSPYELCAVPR
The next data set has as its target human CYP2C9 (Homo sapiens, UniProt P11712).
Another data set addresses CYP3A4 (Homo sapiens, UniProt P08684).
Data set [3] deals with T2, human CYP2C19 (Homo sapiens, UniProt P33261). Briefly: biochemical.
T2 sequence (P33261 whole entry): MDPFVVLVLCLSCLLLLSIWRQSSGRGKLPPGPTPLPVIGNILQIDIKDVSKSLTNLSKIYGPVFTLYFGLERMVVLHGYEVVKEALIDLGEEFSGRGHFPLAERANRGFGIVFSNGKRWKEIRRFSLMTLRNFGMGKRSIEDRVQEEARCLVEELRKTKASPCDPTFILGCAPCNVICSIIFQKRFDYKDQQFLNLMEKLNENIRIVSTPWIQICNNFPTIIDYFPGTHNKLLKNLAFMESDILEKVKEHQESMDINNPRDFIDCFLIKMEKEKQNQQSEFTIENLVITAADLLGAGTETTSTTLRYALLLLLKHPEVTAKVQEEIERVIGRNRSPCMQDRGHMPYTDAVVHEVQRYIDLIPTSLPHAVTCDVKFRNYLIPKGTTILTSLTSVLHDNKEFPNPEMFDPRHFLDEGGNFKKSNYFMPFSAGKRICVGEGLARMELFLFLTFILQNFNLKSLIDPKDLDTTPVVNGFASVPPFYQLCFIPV
For data set [4], the target named is T3, human CYP1A2 (Homo sapiens, UniProt P05177).
T3 sequence (P05177 1-516): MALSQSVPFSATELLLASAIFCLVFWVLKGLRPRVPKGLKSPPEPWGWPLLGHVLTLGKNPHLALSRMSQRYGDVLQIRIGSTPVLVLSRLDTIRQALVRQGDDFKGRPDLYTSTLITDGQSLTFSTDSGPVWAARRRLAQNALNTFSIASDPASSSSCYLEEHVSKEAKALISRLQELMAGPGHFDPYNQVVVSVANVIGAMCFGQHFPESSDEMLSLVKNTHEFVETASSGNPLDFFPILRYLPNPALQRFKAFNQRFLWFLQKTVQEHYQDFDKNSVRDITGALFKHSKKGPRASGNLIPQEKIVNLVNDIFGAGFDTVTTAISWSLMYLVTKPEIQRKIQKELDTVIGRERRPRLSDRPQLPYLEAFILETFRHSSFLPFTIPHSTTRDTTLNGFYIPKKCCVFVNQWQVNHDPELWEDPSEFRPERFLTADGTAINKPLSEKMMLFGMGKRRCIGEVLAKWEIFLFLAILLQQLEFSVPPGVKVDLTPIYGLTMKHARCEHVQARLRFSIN
Briefly: biochemical.

For data set [5], the target named is T3, human CYP1A2. Particulars: human.
The target in data set [6] is T2, human CYP2C19. Particulars: human.
Data set [7] addresses T1, human CYP2D6. Particulars: human.
[8] abbreviates: CYP2D6 IC50 (half-maximal inhibitory concentration).
Setting [9] is: CYP2C19 IC50 (half-maximal inhibitory concentration).
[10] abbreviates: CYP1A2 IC50 (half-maximal inhibitory concentration).

Chain of human CYP2C9 (P11712 whole entry): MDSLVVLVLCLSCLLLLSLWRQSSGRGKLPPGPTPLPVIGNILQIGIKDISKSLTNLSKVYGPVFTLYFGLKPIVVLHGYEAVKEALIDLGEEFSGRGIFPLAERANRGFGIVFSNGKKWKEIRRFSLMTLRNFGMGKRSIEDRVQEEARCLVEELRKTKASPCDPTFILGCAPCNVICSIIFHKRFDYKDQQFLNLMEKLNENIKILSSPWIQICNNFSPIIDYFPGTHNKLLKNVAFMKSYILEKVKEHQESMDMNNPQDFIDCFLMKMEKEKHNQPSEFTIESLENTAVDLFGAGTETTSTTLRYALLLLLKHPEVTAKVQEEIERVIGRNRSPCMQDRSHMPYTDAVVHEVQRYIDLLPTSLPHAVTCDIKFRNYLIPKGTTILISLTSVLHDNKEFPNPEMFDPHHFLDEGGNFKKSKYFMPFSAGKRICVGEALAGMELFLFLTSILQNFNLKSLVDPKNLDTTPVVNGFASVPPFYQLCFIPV
Chain of CYP3A4 (P08684 whole entry): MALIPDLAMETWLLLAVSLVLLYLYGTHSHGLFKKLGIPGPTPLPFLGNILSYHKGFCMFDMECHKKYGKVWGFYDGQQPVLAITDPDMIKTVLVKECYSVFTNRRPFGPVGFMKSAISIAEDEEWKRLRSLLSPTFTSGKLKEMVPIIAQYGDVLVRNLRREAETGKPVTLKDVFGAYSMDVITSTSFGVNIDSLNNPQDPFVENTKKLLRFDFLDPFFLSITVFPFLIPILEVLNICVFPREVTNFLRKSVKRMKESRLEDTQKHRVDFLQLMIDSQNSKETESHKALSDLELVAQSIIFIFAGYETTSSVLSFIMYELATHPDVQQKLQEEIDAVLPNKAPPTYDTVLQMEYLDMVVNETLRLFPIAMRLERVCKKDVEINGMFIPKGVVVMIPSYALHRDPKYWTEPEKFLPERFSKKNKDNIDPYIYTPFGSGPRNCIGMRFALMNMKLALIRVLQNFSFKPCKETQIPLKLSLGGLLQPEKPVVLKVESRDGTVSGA
Chain of Photinus pyralis (firefly) luciferase (P08659 whole entry): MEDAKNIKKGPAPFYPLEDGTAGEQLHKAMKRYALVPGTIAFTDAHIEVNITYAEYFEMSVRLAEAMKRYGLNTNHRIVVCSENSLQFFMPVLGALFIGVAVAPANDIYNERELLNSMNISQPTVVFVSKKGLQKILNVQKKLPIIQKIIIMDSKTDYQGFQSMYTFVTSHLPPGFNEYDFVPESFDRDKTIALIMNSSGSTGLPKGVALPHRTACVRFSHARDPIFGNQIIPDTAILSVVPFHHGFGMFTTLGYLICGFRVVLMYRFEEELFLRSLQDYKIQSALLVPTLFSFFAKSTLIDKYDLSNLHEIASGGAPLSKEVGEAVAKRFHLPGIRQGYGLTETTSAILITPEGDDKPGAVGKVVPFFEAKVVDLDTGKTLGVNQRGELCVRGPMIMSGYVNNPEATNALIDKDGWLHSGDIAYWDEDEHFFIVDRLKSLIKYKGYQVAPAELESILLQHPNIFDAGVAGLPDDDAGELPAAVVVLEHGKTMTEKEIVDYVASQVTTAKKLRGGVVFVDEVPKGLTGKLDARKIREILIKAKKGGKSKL

On to `CN(C)CCN(Cc1ccccc1)c1ccccn1` [Tripelennamine citrate], for which the “Luciferase IC50 (half-maximal inhibitory concentration)” value in [1] is listed as “Inactive”. The IC50 at human CYP2D6 [2] (setting [8]) was found to be 0.2 µM; against human CYP2C19 [3] (setting [9]), 35.7 µM; against human CYP1A2 [4] (setting [10]), 26.5 µM. At human CYP2C9, the “CYP2C9 IC50 (half-maximal inhibitory concentration)” value is “Inactive”. The “CYP3A4 IC50 (half-maximal inhibitory concentration)” value at CYP3A4 was “Inactive”.
As for `COc1ccc(CN(CCN(C)C)c2ncccn2)cc1` [Thonzylamine hydrochloride], in [1], the “Luciferase IC50 (half-maximal inhibitory concentration)” value is given as “Inactive”. Also, the values for the IC50 against human CYP2D6 [2] (setting [8]), at human CYP2C19 [3] (setting [9]) and against human CYP1A2 [4] (setting [10]) were 0.7 µM, 15.7 µM and 18.5 µM, respectively. Further, at human CYP2C9, the “CYP2C9 IC50 (half-maximal inhibitory concentration)” value was “Inactive”. Further, the “CYP3A4 IC50 (half-maximal inhibitory concentration)” value on CYP3A4 was “Inactive”.
Turning to `CCCCc1cc2ccccc2c(OCCN(C)C)n1` [Dimethisoquin hydrochloride], in data set [1], the “Luciferase IC50 (half-maximal inhibitory concentration)” value was “Inactive”. The IC50 against human CYP2D6 [2] turned out to be 4.36 µM; against human CYP2C19 [3], 39.2 ± 6.35 µM; against human CYP1A2 [4], 0.47 ± 0.03 µM. The “CYP2C9 IC50 (half-maximal inhibitory concentration)” value on human CYP2C9 was “Inactive”. Further, the “CYP3A4 IC50 (half-maximal inhibitory concentration)” value at CYP3A4 is listed as “Inactive”.
`CCN(CC)CCCN(c1ccccc1)C1Cc2ccccc2C1` [Aprindine hydrochloride]: the “Luciferase IC50” value in data set [1] was “Inactive”. In addition, the IC50 at human CYP2D6 [2] (CYP2D6 IC50) worked out at 0.44 µM; against human CYP2C19 [3] (CYP2C19 IC50), 41.3 µM; against human CYP1A2 [4] (CYP1A2 IC50) it was 22.2 µM. Moreover, the “CYP2C9 IC50” value at human CYP2C9 is “Inactive”. For the same compound, the “CYP3A4 IC50” value at CYP3A4 is “Inactive”.
As to `CCCCC(CC)CNCC(CC)CCCC` (stereo not drawn) [2,2'-Diethylhexylamine], the “Luciferase IC50” value in data set [1] is “Inactive”. In addition, the IC50 was determined as 0.31 µM against human CYP2D6 [2] (CYP2D6 IC50), 51.3 µM against human CYP2C19 [3] (CYP2C19 IC50) and 47.4 µM on human CYP1A2 [4] (CYP1A2 IC50). Moreover, the “CYP2C9 IC50” value at human CYP2C9 is “Inactive”. Further, at CYP3A4, the “CYP3A4 IC50” value is reported as “Inactive”.
Turning to `CCn1ccnc1CC1COc2ccccc2O1` (stereo not drawn) [Imiloxan], the “Luciferase IC50 (half-maximal inhibitory concentration)” value in data set [1] is “Inactive”. For the same compound, the IC50 is 0.69 µM on human CYP2D6 [2] (setting [8]), 4.42 µM against human CYP2C19 [3] (setting [9]) and 25.3 µM against human CYP1A2 [4] (setting [10]). Besides, the “CYP2C9 IC50 (half-maximal inhibitory concentration)” value at human CYP2C9 is reported as “Inactive”. Further, the “CYP3A4 IC50 (half-maximal inhibitory concentration)” value at CYP3A4 is “Inactive”.
On to `COc1ccc(CN(CCN(C)C)c2ccccn2)cc1` [Pyrilamine maleate], for which, in data set [1], the “Luciferase IC50 (half-maximal inhibitory concentration)” value is reported as “Inactive”. The IC50 stood at 0.18 µM on human CYP2D6 [2] (setting [8]), 15.8 µM against human CYP2C19 [3] (setting [9]) and 62.7 µM on human CYP1A2 [4] (setting [10]). Moreover, the “CYP2C9 IC50 (half-maximal inhibitory concentration)” value on human CYP2C9 is recorded as “Inactive”. Moreover, at CYP3A4, the “CYP3A4 IC50 (half-maximal inhibitory concentration)” value was “Inactive”.
Take `O=[N+]([O-])c1ccc2ccc3cccc4ccc1c2c34` [1-Nitropyrene]: in data set [1], the “Luciferase IC50 (half-maximal inhibitory concentration)” value is listed as “Inactive”. Moreover, the “CYP1A2 Efficacy (in parenthesis)” value at human CYP1A2 [5] was 0.27 ± 0.05 (-96 ± 5) %. The IC50 against human CYP2D6 [2] (setting [8]) is 33 µM; against human CYP2C19 [3] (setting [9]), 14 µM; at human CYP1A2 [4] (setting [10]), 0.27 µM. Also, the “CYP2C9 IC50 (half-maximal inhibitory concentration)” value on human CYP2C9 is given as “Inactive”. In addition, the “CYP3A4 IC50 (half-maximal inhibitory concentration)” value at CYP3A4 is listed as “Inactive”. The “CYP2C19 Efficacy (in parenthesis)” value at human CYP2C19 [6] is reported as 14.04 ± 11.88 (-69 ± 19) %. For the same compound, the “CYP2D6 Efficacy (in parenthesis)” value on human CYP2D6 [7] is recorded as 33 ± 2.23 (-91 ± 22) %.
Take `CN(C)CCCN1c2ccccc2Sc2ccc(C(F)(F)F)cc21` [Triflupromazine hydrochloride]: in data set [1], the “Luciferase IC50 (half-maximal inhibitory concentration)” value is on record as “Inactive”. The figures for the IC50 against human CYP2D6 [2] (setting [8]), at human CYP2C19 [3] (setting [9]) and against human CYP1A2 [4] (setting [10]) were 0.55 µM, 7.62 µM and 3.52 µM, respectively. At human CYP2C9, the “CYP2C9 IC50 (half-maximal inhibitory concentration)” value is listed as “Inactive”. Besides, the “CYP3A4 IC50 (half-maximal inhibitory concentration)” value on CYP3A4 is “Inactive”.
